The values below come from PMC9574867, “Discovery and Characterization of Synthesized and FDA-Approved Inhibitors of Clostridial and Bacillary Collagenases” (Journal of Medicinal Chemistry, 2022).

“Also recorded” adds a separate entry of the source.

The test system of this experiment is MDCK II cells challenged with B. cereus AH187 supernatant. In kind it is cell-based, canine.
Take `Cc1ccc2nc(P(=O)(O)O)c(P(=O)(O)O)nc2c1` [Compound 11, (6-Methylquinoxaline-2,3-diyl)bis(phosphonic acid)]: the “TEER of MDCK II cells challenged with supernatant” value (“TEER of MDCK II cells challenged” for short) is on record as “maintained the TEER of MDCK II cells challenged with B. cereus supernatant”.

On to `O=P([O-])(O)C(Sc1ccc(Cl)cc1)P(=O)([O-])O.[Na+].[Na+]` [Tiludronate disodium, reference compound], for which the “TEER of MDCK II cells challenged” value is reported as “maintained the TEER of MDCK II cells challenged with B. cereus supernatant”.

Turning to `O=P(O)(O)c1nc2cc(Cl)c(Cl)cc2nc1P(=O)(O)O` [Compound 13, (6,7-Dichloroquinoxaline-2,3-diyl)bis(phosphonic acid)], the “TEER of MDCK II cells challenged” value was “retain the TEER of the challenged cells; also recorded: maintained the TEER of MDCK II cells challenged with B. cereus supernatant”.

On to `O=P(O)(O)c1nc2ccc(-c3ccc(Cl)cc3)cc2nc1P(=O)(O)O` [Compound 15, (6-(4-Chlorophenyl)quinoxaline-2,3-diyl)bis(phosphonic acid)], for which the “TEER of MDCK II cells challenged” value is recorded as “maintained the TEER of MDCK II cells challenged with B. cereus supernatant”.

Take `O=P(O)(O)c1nc2ccc(Br)cc2nc1P(=O)(O)O` [Compound 10, (6-Bromoquinoxaline-2,3-diyl)bis(phosphonic acid)]: the “TEER of MDCK II cells challenged” value is “retain the TEER of the challenged cells”.
